Here are results for two molecules from US9642922B2, “Caspase-triggered nano-aggregation probes and methods of use” (The Board of Trustees of the Leland Stanford Junior …, priority 2013, dated 2017).

Numbered stars: 1 amine (or outer) side, 2 acyl side, 3 side chain; on linkers, the order of the positions; unused ones are H or OH. Square brackets hold non-standard residues; d marks the D form. Peptide text beside a SMILES is read from it. * marks the point of attachment. DOTA = O=C(O)CN1CCN(CC(=O)O)CCN(CC(=O)*)CCN(CC(=O)O)CC1; X1 = O=C(C1CSC(c2nc3ccc(N[*:1])cc3s2)=N1)[*:2]; X2 = N#Cc1ccc2cc(OCCCN*)ccc2n1; SEt = CCS*

One test relates to apoptotic HeLa cells. In words: Epifluorescence microscopy of apoptotic HeLa cells labeled with probes. The test is classed as cell-based, human. The procedure: After removal of the medium, the cells were incubated with C-SNAF, L-ctrl, or D-ctrl at 2 μM for 24 h. Some cells were first incubated with caspase inhibitor (Z-VAD-fmk, 50 μM) for 30 min, followed by incubating with 2 μM C-SNAF for 24 h. The cells were carefully washed with PBS (1×) three times, and stained with Hoechst 33342 (2 μM) at 37° C. for 30 min. After rinses with PBS (1×) several times, the medium was replaced and the fluorescence images were acquired with DAPI and Cy5.5 filters. The images were processed using the standard CRi Nuance software, analyzed using Image J software package (NIH), and presented at the same intensity scale for comparison.
HeLa cells in #1.5 borosilicate 8-well chambered coverslips (Nunc) were either incubated with C-SNAF (2 μM) alone or co-incubated with DOX (1, 2, and 5 μM) and 2 μM C-SNAF, 2 μM C-SNAF together with caspase inhibitor (Z-VAD-fmk, 50 μM), or control probes D-ctrl and L-ctrl at 2 μM for 24 h. Then the medium was removed, the cells were carefully washed with PBS (1×) three times, and stained with nuclear binding probe Hoechst 33342 (2 μM) at 37° C. for 30 min. After several rinses with PBS (1×), the medium was replaced and the fluorescence images were acquired with DAPI and […] filters.

Another test has as its target T1, legumain (Homo sapiens, UniProt Q99538).
T1 construct: purchased R&D Systems; host or cells: mouse myeloma cell line
In words: T1 measurement of probe 15 with legumain. In kind it is biochemical. The following applies: probe 208 μM, protease 50 nM, 1 T. On the procedure: (§1) The enzyme specificity of probe 15 was studied by measuring the T1 value resulting from probe incubation (208 μM) with any of five relevant subcellular proteases (caspase-3, -7, -9, cathepsin B and legumain) in enzyme buffer. […] The reduced T1 value in solution was inhibited by the caspase inhibitor Z-VAD-fmk (50 μM).
Cathepsin B (human liver; 0.27 U; 7.35×10^−4 mg, Calbiochem) and Legumain (human, recombinant from mouse myeloma cell line; >250 pmol/min/μg; 7.35×10^−4 mg, R&D Systems) were conducted in reaction buffer with 50 mM sodium acetate, 50 mM NaCl, 0.5 mM EDTA and 10 mM TCEP at pH 5.5. The C-SNAF was diluted in the respective enzyme reaction buffer (25 μM, 1 mL) and remained at room temperature for 10 min, to which was added respective enzymes.

Another test addresses T2, caspase-3 (Homo sapiens, UniProt P42574).
T2 sequence (P42574 29-175 limits assumed): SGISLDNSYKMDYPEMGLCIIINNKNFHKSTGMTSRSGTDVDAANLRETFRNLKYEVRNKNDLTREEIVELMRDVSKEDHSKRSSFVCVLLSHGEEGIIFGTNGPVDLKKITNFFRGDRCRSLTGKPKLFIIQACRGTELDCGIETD
T2 sequence (P42574 176-277 limits assumed): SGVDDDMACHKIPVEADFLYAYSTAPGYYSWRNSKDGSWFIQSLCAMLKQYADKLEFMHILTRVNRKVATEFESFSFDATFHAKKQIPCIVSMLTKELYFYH
Kind of test: T1 measurement of probe 15 with caspase-3. The test is classed as biochemical. Further details: purchased Sigma; host or cells: E. coli. Conditions: probe 200 μM. On the procedure:
as §1
Caspase (human, recombinant from E. coli) assays were performed for caspase-3 (4.9×10^−3 U; 7.35×10^−4 mg, Sigma), −7 (18.3 U; 7.35×10^−4 mg, Calbiochem), and −9 (0.3 U; 7.35×10^−4 mg, Calbiochem). All caspase assays were conducted in caspase buffer with 50 mM HEPES, 100 mM NaCl, 1 mM EDTA, 10 mM TCEP, 10% glycerol, and 0.1% CHAPS at pH 7.4.

T1 sequence (Q99538 18-323): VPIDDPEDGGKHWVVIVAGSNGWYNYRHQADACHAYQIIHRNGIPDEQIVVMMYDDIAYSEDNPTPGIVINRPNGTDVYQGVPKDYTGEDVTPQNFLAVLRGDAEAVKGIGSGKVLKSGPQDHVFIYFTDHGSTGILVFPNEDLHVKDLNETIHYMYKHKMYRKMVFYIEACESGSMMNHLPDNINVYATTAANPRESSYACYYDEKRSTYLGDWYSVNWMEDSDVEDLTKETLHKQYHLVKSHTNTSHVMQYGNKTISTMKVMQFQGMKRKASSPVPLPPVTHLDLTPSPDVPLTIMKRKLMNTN

As to `CCSSC[C@@H](NC(=O)[C@H](CC(=O)O)NC(=O)[C@@H](NC(=O)[C@H](CCC(=O)O)NC(=O)[C@H](CC(=O)O)NC(C)=O)C(C)C)C(=O)N[C@@H](CCCCNC(=O)CCCCCN1C(=CC=CC=CC2=[N+](CC)c3ccc4c(S(=O)(=O)[O-])cc(S(=O)(=O)O)cc4c3C2(C)C)C(C)(C)c2c1ccc1c(S(=O)(=O)O)cc(S(=O)(=O)O)cc21)C(=O)Nc1ccc2nc(C3=N[C@@H](C(=O)NCCCOc4ccc5nc(C#N)ccc5c4)CS3)sc2c1` [C-SNAF], the cell labeling efficiency was found to be 9% with apoptotic HeLa cells (DOX 1 μM), 92% in the test with apoptotic HeLa cells (DOX 5 μM), 23% with apoptotic HeLa cells (STS 0.5 μM) and 90% in the test with apoptotic HeLa cells (STS 2 μM). In addition, the results for the “enhancement in cell labeling efficiency” value in the test with apoptotic HeLa cells (DOX 1 to 5 μM) and in the test on apoptotic HeLa cells (STS 0.5 to 2 μM) were “approximately 10 fold” and “approximately 4 fold”, respectively.

On to `CCSSCC(NC(=O)C(CC(=O)O)NC(=O)C(NC(=O)C(CCC(=O)O)NC(=O)C(CC(=O)O)NC(C)=O)C(C)C)C(=O)NC(CCCCNC(=O)CN1CCN(CC(=O)[O-])CCN(CC(=O)[O-])CCN(CC(=O)[O-])CC1)C(=O)Nc1ccc2nc(C3=NC(C(=O)NCCCOc4ccc5nc(C#N)ccc5c4)CS3)sc2c1.[Gd+3]` (centres unmarked) [probe 15] (Ac-DEVDC(SEt)K(DOTA)[X1]-X2; configuration not given here), for which the “T1 value after incubation with legumain” value at legumain is “No reduced T1 value”. Further, the “lowest caspase-3 concentration detected by T1 value measurements” value at caspase-3 was 5 nM.
